Measurements as given in patent US4812473A, “1,5-Disubstituted imidazoles as inhibitors of juvenile hormone” (Earth Chemical Co., Ltd., priority 1986, dated 1989).

Columns and labels:
[1] = test system: anti-JH activity; assay: Inhibition of the anti-JH activity of the compound of Example 1 by methoprene, a JH-active substance; settings: in vivo
Protocol: Investigation was conducted to determine whether the activity of the foregoing compound of the invention can be inhibited by methoprene which is a JH-active substance. […] [Anti-JH Activity Test II]

[2] = test system: 4th-instar household silkworm larvae; assay: Anti-JH Activity Test II: anti-JH activity value (ED50); assay type: in vivo, Bombyx mori; settings: 4th-instar larvae, dropwise application
Protocol: (§1) The compound (test preparation) of the present invention diluted with acetone to the predetermined concentration was applied dropwise, in an amount of 1 to 4 μper larva, to the abdomen and the back of third- or fourth-instar larvae (those living for 0 to 8 hours after ecdysis) of household silkworms (Bombyx mori) raised in a room and fed on mulberry leaves. Immediately after treatment, the larvae were placed into a plastics case and reared by being fed on mulberry leaves until they started spinning cocoons. The anti-JH activity was evaluated in terms of the percentage (%) of presence of larvae (premature larvae) which began to spin cocoons at the 4th-instar stage without undergoing the 5th-instar moult. The test larvae treated with each test preparation in each group numbered 20. The test larvae in the control group treated with acetone in lieu of the test compound all commenced cocooning after the 5th-instar moult.
After the test compound diluted to the predetermined concentration was applied dropwise to 4th-instar household silkworm larvae in the same manner as in Anti-JH Activity Test I as described above, the larvae thus treated were reared until they started cocooning. The number of larvae which began to cocoon at the 4th-instar stage without undergoing the 5th-instar moult were counted to determine the percentage (%) of presence of larvae (premature larvae). Then the concentration of test preparation which induced 50% presence was determined and indicated as an anti-JH activity value (ED50).

[3] = test system: household silkworms (Bombyx mori) larvae; assay: Anti-JH Activity Test I: activity to induce premature metamorphosis; assay type: in vivo
Protocol: as §1

Compound | ED50 (anti-JH activity value, 50% presence of premature larvae) [2] [μg/larva] | further results
COC(C)(C)CCC[C@H](C)C/C=C/C(C)=C/C(=O)OC(C)C (racemic) [methoprene] |  | inhibition by methoprene of the activity of the compound of the invention (Example 1) [1]: completely inhibited
CC(C)CCCC(C)Cc1cncn1Cc1ccccc1 (stereo not drawn) [Example 1, 1-benzyl-5-(2,6-dimethylheptyl)imidazole] | 1.4 | Activity to induce premature metamorphosis ([3]; 3rd-instar larvae, dosage 0.5 μg/larva): 10%; Activity to induce premature metamorphosis ([3]; 3rd-instar larvae, dosage 1 μg/larva): 70%; Activity to induce premature metamorphosis ([3]; 3rd-instar larvae, dosage 2 μg/larva): 100%; Activity to induce premature metamorphosis ([3]; 4th-instar larvae, dosage 1 μg/larva): 20%; Activity to induce premature metamorphosis ([3]; 4th-instar larvae, dosage 2 μg/larva): 100%; Activity to induce premature metamorphosis ([3]; 4th-instar larvae, dosage 10 μg/larva): 100%; anti-JH activity (in words) ([3]; conclusion from Table 1): had an anti-JH activity
CC(C)=CCC/C(C)=C/c1cncn1C [Example 2, 1-methyl-5-[(E)-2,6-dimethyl-1,5heptadienyl]-imidazole] | 17.5 | 
CCn1cncc1/C=C(\C)CCC=C(C)C [Example 3, 1-ethyl-5-[(E)-2,6-dimethyl-1,5-heptadienyl]imidazole] | 5.8 | 
CCCn1cncc1/C=C(\C)CCC=C(C)C [Example 4, 1-propyl-5-[(E)-2,6-dimethyl-1,5-heptadienyl]imidazole] | 3.5 | 
CCCCn1cncc1/C=C(\C)CCC=C(C)C [Example 5, 1-butyl-5-[(E)-2,6-dimethyl-1,5-heptadienyl]imidazole] | 3.1 | 
CCCCCn1cncc1/C=C(\C)CCC=C(C)C [Example 6, 1-amyl-5-[(E)-2,6-dimethyl-1,5-heptadienyl]imidazole] | 2.4 | 
CCCCCCn1cncc1/C=C(\C)CCC=C(C)C [Example 7, 1-hexyl-5-[(E)-2,6-dimethyl-1,5-heptadienyl]imidazole] | 4.2 | 
CC(C)=CCC/C(C)=C/c1cncn1C(C)C [Example 8, 1-isopropyl-5-[(E)-2,6-dimethyl-1,5-heptadienyl]imidazole] | 6.4 | 
CC(C)=CCC/C(C)=C/c1cncn1CC(C)C [Example 9, 1-isobutyl-5-[(E)-2,6-dimethyl-1,5-heptadienyl]imidazole] | 1.8 | 
CCC(C)n1cncc1/C=C(\C)CCC=C(C)C (stereo not drawn) [Example 10, 1-sec-butyl-5-[(E)-2,6-dimethyl-1,5-heptadienyl]imidazole] | 1.9 | 
CC(C)=CCC/C(C)=C/c1cncn1CCC(C)C [Example 11, 1-isoamyl-5-[(E)-2,6-dimethyl-1,5-heptadienyl]imidazole] | 3.5 | 
CC(C)=CCC/C(C)=C/c1cncn1C1CCCC1 [Example 12, 1-cyclopentyl-5-[(E)-2,6-dimethyl-1,5-heptadienyl]imidazole] | 3.6 | 
CC(C)=CCC/C(C)=C/c1cncn1C1CCCCC1 [Example 13, 1-cyclohexyl-5-[(E)-2,6-dimethyl-1,5-heptadienyl]imidazole] | 6.6 | 
